Assay results reported in article PMC11173721, “Discovery of a New Class of Lipophilic Pyrimidine-Biphenyl Herbicides Using an Integrated Experimental-Computational Approach” (Molecules, 2024).

Molecular target: T1, acetohydroxyacid synthase (AHAS) (Arabidopsis thaliana, UniProt P17597)
T1 construct: gene ALS; wild-type
T1 sequence (P17597 56-670): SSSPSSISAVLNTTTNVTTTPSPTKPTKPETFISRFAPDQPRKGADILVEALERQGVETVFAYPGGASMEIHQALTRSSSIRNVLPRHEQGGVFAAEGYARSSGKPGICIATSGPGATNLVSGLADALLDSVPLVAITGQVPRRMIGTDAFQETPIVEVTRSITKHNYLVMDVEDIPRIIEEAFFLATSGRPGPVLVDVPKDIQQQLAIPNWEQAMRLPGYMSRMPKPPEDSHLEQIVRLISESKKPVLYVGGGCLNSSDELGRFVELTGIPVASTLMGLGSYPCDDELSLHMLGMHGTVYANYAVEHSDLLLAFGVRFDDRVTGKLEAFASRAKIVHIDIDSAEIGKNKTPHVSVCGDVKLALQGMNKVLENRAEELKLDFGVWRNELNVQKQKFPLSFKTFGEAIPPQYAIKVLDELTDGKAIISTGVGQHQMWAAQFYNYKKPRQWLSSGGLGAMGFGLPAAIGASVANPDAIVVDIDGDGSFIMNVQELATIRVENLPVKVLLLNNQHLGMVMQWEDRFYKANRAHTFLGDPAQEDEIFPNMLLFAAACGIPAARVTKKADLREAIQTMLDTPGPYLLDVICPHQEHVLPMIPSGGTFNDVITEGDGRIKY
Assay: purified AtAHAS colorimetric activity assay ([…] nm)
Format: biochemical

Row | IC50 [µM] | Compound
1 | 343 | COc1cc(OC)nc(Oc2ccccc2CNc2ccc(-c3ccccc3)cc2)n1 [IIIa]
2 | 189 | COc1cc(OC)nc(Oc2ccccc2CNc2cccc(-c3ccccc3)c2)n1 [IIa]
3 | 157 | COc1cc(OC)nc(Oc2ccccc2CNc2ccccc2-c2ccccc2)n1 [Ia]
4 | 593 | COc1cc(OC)nc(Oc2ccccc2CNc2ccccc2)n1 [PBA]
